The source of these data is publication PMC10779433, “Bidirectional Allosteric Coupling between PIP2 Binding and the Pore of the Oncochannel TRPV6” (International Journal of Molecular Sciences, 2024).

No end group written: not given here. *: point of attachment. Palmitoyl = CCCCCCCCCCCCCCCC(=O)*

For one assay, the target named is T1, TRPV6 WT (Homo sapiens, UniProt Q9H1D0).
T1 construct: expressed in transfected cells; host or cells: HEK293 cells, transient transfection
T1 sequence (Q9H1D0 41-765 limits assumed): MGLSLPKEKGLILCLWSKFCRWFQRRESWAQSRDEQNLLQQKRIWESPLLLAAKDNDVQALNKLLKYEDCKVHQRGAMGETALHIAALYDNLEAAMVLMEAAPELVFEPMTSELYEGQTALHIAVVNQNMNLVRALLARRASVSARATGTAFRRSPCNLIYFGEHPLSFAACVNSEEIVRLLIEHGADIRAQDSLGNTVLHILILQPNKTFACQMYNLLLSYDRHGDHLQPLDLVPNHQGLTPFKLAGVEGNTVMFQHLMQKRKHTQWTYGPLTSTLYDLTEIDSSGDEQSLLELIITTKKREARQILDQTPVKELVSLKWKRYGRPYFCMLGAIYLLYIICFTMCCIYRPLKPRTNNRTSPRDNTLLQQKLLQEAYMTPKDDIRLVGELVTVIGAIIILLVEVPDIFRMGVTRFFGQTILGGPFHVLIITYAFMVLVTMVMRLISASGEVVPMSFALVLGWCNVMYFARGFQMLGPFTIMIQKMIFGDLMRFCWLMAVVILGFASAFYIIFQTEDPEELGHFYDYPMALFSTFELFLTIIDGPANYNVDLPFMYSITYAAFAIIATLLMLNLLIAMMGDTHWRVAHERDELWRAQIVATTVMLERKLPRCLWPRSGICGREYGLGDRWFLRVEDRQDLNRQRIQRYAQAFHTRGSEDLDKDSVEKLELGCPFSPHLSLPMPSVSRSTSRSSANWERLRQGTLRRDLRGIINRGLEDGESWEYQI
Description: Fura-2 Ca2+ imaging, TRPV6 WT. The class given is cell-based. The conditions noted are these: HEK293 cells; 20 μM control peptide; effect likely attributable to ongoing channel inactivation.

Another assay has as its system TRPV6. The conditions noted are these: physiologically relevant concentrations; ref [19],[59]; cited from earlier work.

In the case of “Palmitoyl-HAQKHFEAAA [control peptide, palmitoylated peptide having four of the basic residues of the pal-PIP2 peptide replaced by alanine]”, the “decrease in cytosolic Ca2+ level (in words)” value at TRPV6 WT is recorded as “slow, continuous reduction”.
Consider “phosphatidylinositol-4-phosphate [PI(4)P]”, for which the “activation of TRPV6” value in the assay on TRPV6 is “does not activate TRPV6”.
